Laboratory results reported in patent US20030175270A1, “Methods of regulating cytokine receptor signaling” (priority 2002, published 2003).

How the values were obtained:
JAK1 = JAK1 Tyr 1022/Tyr 1023 phosphorylation in IL-3 stimulated BMMCs treated with Src inhibitor; type: cell-based, mouse; settings: IL-3 stimulated cd45+/+ or cd45-/- BMMCs
Description: (§1) Murine BMMCs, splenic B cells, thymocytes, peritoneal macrophages and Jurkat T-cell lines were stimulated with various cytokines. For immunoprecipitations, lysates were incubated with antibodies conjugated with agarose or Sepharose beads for 2 h at 4° C. Total cell lysates or immunoprecipitates were separated using SDS-polyacrylamide gel electrophoresis, transferred onto membranes and immunoblotted. COS cells were transfected using diethylaminoethyl-dextron transfection technique with wild-type or PTPase-dead CD45 (D1:C828s) as described [McKenney et al., J. Biol. Chem. 270:24949-24954, 1995].
(§2) Experiments were designed in order to assess whether Src kinases, known substrates of CD45, were deregulated during hyperactivation of the JAK-STAT pathway in cd45^−/− BMMCs. […] In addition, in IL-3 stimulated cd45^+/+ or cd45 ^−/− BMMCs, treatment with PP2 had no effect on the increased phosphorylation of the specific residues Tyr 1007 and TYR1008 in JAK2, Tyr 705 in STAT3, and Tyr 1022 and Tyr 1023 in JAK1 (see FIG. 2).

JAK2 = JAK2 activation/phosphorylation in IL-3 stimulated BMMCs treated with Src inhibitor; type: cell-based, mouse
Description: as §1
For tyrosine phosphatase assays, immunoprecipitated Lyn, JAKs or STATs from lysates of 10^7 BMMCs (for Lyn, JAK1, JAK2, STAT3 and STAT5) or macrophages (for Tyk2) were washed in lysis buffer and phosphatase reaction buffer [Felberg et al., J. Biol. Chem. 273:17839-17845, 1998]. The amounts of Lyn and JAK2 in the immunoprecipitates used in FIG. 3A were 72 ng and 48 ng, respectively, as determined by silver staining. […] Tyrosine phosphorylation was monitored by immunoblotting with phosphotyrosine-specific antibodies. The extent of tyrosine phosphorylation and amount of substrates were determined by quantifying the intensities of the immunoblots with NIH Image 1.61 software. […]

STAT3 = STAT3 Tyr 705 phosphorylation in IL-3 stimulated BMMCs treated with Src inhibitor; type: cell-based, mouse; settings: IL-3 stimulated cd45+/+ or cd45-/- BMMCs
Description: as §1, §2

Coxsackievirus B3 (CVB3) = assay: CVB3 replication in Jurkat cells, plaque-forming assay; type: cell-based, human; settings: IFN-α 1,000 units/ml pretreatment 4 h; cd45-deficient vs parental Jurkat cells
Description: For Coxsackievirus infections in vitro, Jurkat cells were pretreated with IFN-α (1,000 units ml−^1) for 4 h and inoculated in triplicate with 3×10^5 CVB3 for 1 h at 37° C. Cells were then washed to remove excess IFN-α and excess CBV3 virus, and resuspended in RPMI medium containing 10% FBS. After 24 h, culture supernatants were analyzed for the presence of infectious CVB3 by using plaque-forming assays in HeLa cell monolayers. For CVB3 infections in vivo , the cd45mutation was backcrossed onto an A/J (H2^k/k ) background for five generations. A/J (H2^k/k) mice are highly susceptible to acute and chronic CVB3 infections. Four-week-old mice were inoculated intraperitoneally with 10^5 plaque-forming units of CVB3. For lethality scores, cd45−^/− (n=25) and cd45^± (n=22) littermate mice were monitored daily after infection. […] At defined time points, mice were sacrificed and organs were processed for histology. Sections from eight mice per group were stained with haematoxylin/eosin and Masson blue. In all experiments, the CVB3 strain Gauntt-Chow was used.
IFN-α and IFN-α R-regulated signaling are critical for replication of the picomavirus Coxsackievirus B3 (CVB3) in vitro and CVB3 infections in vivo [Kandolf et al., J. Mol. Cell. Cardiol. 17:167-181, 1985]. […] CVB3 titres were measured after infection of parental or cd45-deficient Jurkat cell lines. […]

rCD45 = molecular target: T1, rCD45 (Homo sapiens, UniProt P08575); assay: inhibition of rCD45-mediated JAK2 dephosphorylation; type: biochemical; settings: 0.1 mM Na3 VO4, 10 U rCD45
T1 construct: The rCD45 employed contained the intracellular dual PTPase domains with a relative molecular mas of 97,000 (Mr 97K); purchased Calbiochem
T1 sequence (P08575 599-1306 limits assumed): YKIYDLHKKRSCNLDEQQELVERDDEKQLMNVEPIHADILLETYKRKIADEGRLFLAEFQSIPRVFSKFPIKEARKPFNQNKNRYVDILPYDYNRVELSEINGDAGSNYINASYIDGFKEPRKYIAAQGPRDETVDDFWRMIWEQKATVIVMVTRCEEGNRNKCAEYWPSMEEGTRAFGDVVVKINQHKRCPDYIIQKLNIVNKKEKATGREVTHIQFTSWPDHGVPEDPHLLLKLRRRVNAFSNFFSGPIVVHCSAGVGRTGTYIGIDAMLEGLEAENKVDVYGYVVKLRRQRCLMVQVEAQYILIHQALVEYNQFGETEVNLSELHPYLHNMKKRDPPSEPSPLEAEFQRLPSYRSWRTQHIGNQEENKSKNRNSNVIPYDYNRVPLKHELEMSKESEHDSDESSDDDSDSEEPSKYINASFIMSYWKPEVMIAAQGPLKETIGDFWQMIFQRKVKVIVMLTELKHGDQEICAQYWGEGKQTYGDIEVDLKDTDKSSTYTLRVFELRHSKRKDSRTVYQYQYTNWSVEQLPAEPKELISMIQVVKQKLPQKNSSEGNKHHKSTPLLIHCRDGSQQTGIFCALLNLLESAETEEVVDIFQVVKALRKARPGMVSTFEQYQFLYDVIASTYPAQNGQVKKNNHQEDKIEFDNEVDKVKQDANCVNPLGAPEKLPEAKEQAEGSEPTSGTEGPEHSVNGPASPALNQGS
Description: For tyrosine phosphatase assays, immunoprecipitated Lyn, JAKs or STATs from lysates of 10^7 BMMCs (for Lyn, JAK1, JAK2, STAT3 and STAT5) or macrophages (for Tyk2) were washed in lysis buffer and phosphatase reaction buffer [Felberg et al., J. Biol. Chem. 273:17839-17845, 1998]. The amounts of Lyn and JAK2 in the immunoprecipitates used in FIG. 3A were 72 ng and 48 ng, respectively, as determined by silver staining. Recombinant CD45 was added to substrates in the presence or absence of 0.1 mM Na3 VO4 followed by incubation at 30° C. for 20 min. Tyrosine phosphorylation was monitored by immunoblotting with phosphotyrosine-specific antibodies. The extent of tyrosine phosphorylation and amount of substrates were determined by quantifying the intensities of the immunoblots with NIH Image 1.61 software. Kinase activity in anti-Lyn or anti-JAK immunoprecipitates was assessed by an in vitro kinase assay with Raytide (Oncogen Science) as a substrate or using authophosphorylation [Lui et al., Genes Dev. 13:786-791, 1999]. In vitro binding assays were performed as described [Felberg et al., J. Biol. Chem. 273:17839-17845, 1998], using 1 μg of soluble GST, GST-CD45-D2, or GST-PTPase-dead CD45 (D1:C828S). EMSAs were as described [Charurvedi et al., Mol. Cell. Biol. 17:3295-3304, 1997]. The sequences of the EMSA probes were: STAT3, 5′-[…]-3′ (SEQ ID NO: 1); STAT3 mutant, 5′-[…]-3′ (SEQ ID NO: 2). […]

## CC(C)(C)n1nc(-c2ccc(Cl)cc2)c2c(N)ncnc21 [PP2]
JAK1
  increased phosphorylation of Tyr 1022 and Tyr 1023 in JAK1: no effect
JAK2; IL-3 stimulated cd45+/+ or cd45-/- BMMCs
  increased phosphorylation of Tyr 1007 and Tyr 1008 in JAK2: no effect
JAK2; cd45+/+ and cd45-/- BMMCs, addition of the inhibitor
  JAK2 activation: unaffected
STAT3
  increased phosphorylation of Tyr 705 in STAT3: no effect

## IFN-α
Coxsackievirus B3 (CVB3)
  suppression of CVB3 viral amplification: suppressed viral amplification more efficiently in cd45-deficient cells than in parental Jurkat cells

## [Na+].[Na+].[Na+].[O]=[V]([O-])([O-])[O-] [vanadate, Na3 VO4]
rCD45
  effect on rCD45-mediated JAK2 dephosphorylation: inhibits
rCD45; listed as mandate
  effect on rCD45-mediated JAK2 dephosphorylation: blocked JAK2 dephosphorylation
